In patent publication US20260007679A1, “METHODS OF TREATING CANCER USING 3-(4-((4-(MORPHOLINOMETHYL)BENZYL)OXY)-1-OXOISOINDOLIN-2-YL)PIPERIDINE-2,6-DIONE” (Celgene Corporation, priority 2012, published 2026):
Read-outs that look alike come from different tables or passages of the source.

Legend:
[1] = system: human peripheral blood mononuclear cells; experiment: Cytokine profiling in LPS-stimulated hPBMC; format: cell-based; details: for IL-10 (% of control) / MCP-1 (% of control) / RANTES (% of control): 0.1 μM concentration; for IC50: Homo sapiens, PBMC, 18 h, LPS 1 ng/ml, 18 hours
Procedure: Fifty ml human buffy coat was aliquoted 25 ml each into two 50 ml conical tubes and 25 ml sterile HBSS was added to each conical tube. The tubes were gently mixed by inverting. Fifteen ml of room temperature Ficoll-Paque Plus (GE Healthcare (location); cat #17-1440-02) was aliquoted into four 50 ml conical tubes. Then 25 ml of the Buffy coat/IBSS mixture was layered gently and slowly on top of the Ficoll. The samples were centrifuged at 450 rpm for 35 minutes. The top layered containing plasma was pipetted off and discarded. The interface containing mononuclear cells was transferred into two 50 ml conical tubes. Both conical tubes were filled to total volume of 50 ml with HBSS and centrifuged at 1200 rpm for 10 minutes. The cells were washed again in HBSS and spun at 1000 rpm for 10 minutes. Cell pellet was resuspended with 20 ml RPMI complete medium (RPMI/5% human sera/1× pen/strep/glut) and counted.
One hundred μl (2×10^6/ml) of hPBMCs were added to each well of a 96 well flat-bottom plate (final cell count=2×10^5/well) and incubated at 37° C. for 1 hour. Twenty μl (10×) compound was added to each test well and twenty μl medium containing 2.5% DMSO was added to each control well ([DMSO]final=0.25%) and plate was incubated for 1 hour at 37° C. Cells were then stimulated with 80 μl of 2.5 ng/ml LPS ([LPS]final=1 ng/ml) and incubated for 18 hours at 37° C. Fifty μl supernatant from each well was transferred into 3 new round-bottomed 96 well plates and stored at −20° C. for Luminex analysis. Duplicate wells were performed for each sample.
Supernatant samples were analyzed for cytokines in multiplex format according to the manufacturer's instructions (Millipore, Billerica, Ma 01821) using a Luminex IS100 instrument. IL-12 and GM-CSF analyses were done in a two-plex format using neat supernatants while all other cytokines were done in a multiplex format using supernatants diluted 1:20. Data analysis was performed using Upstate Beadview software. […] The IC50 were performed using GraphPad Prism v5.00. The data values represent the mean+SEM (standard error of the mean) of n (number of experiments in duplicate).

NK cells = experiment: NK IgG-induced IFN-γ assay; format: cell-based, human; details: immobilized IgG and IL-2 stimulation; 7 donors
From the text: NK cells from healthy donors were isolated from buffy coat blood by negative selection using the RosetteSep NK cell enrichment cocktail (Stem Cell Technologies, Vancouver, BC) prior to Ficoll-Hypaque (Fisher Scientific Co LLC, PA) density gradient centrifugation following the manufacturers' instructions. CD56+NK cells were isolated to ˜85% purity, as determined by flow cytometry (BD Biosciences, CA).
NK IgG-induced Interferon-Gamma (IFN-γ) Assay: Ninety-six-well flat-bottom plates were coated with 100 µg/mL of human IgG (Sigma) overnight at 4° C. The next day, unbound IgG was washed away with cold 1×PBS. NK cells were then plated in the IgG-coated 96-well plates at 2×10^5 cells per well in 180 μL RPMI-1640 Media and 10 ng/mL of rhIL-2 (R & D Systems, MN) was added. Test compounds were added in a volume of 20 μL DMSO. Final concentrations of test compounds were […]. Final DMSO concentrations were […]. After 48 hours, the supernatants were harvested and analyzed by ELISA for IFN-γ production.
Data used to determine the test compounds to enhance NK cell IFN-γ production in response to immobilized IgG and rhIL-2 stimulation was analyzed for each donor using GraphPad Prism v5.0 software.

[2] = system: Human umbilical vascular endothelial cells; experiment: Growth factor-induced HUVEC tube formation assay; format: cell-based; details: for VEGF-induced HUVEC tube formation (tube length and tube area): VEGF 25 ng/mL
Procedure: Human Umbilical Vascular Endothelial Cell Tube Formation Assay: Compounds were tested in the growth factor-induced HUVEC tube formation assay. The tube formation plates were incubated at 37° C. for 30 minutes for matrigel to polymerize. The HUVECs were starved in 0.1% BSA basal EBM2 medium for 5 hours after washing with the same medium 3 times. The cells were trypsinized and centrifuged. Then 25 μL of 4× serially diluted compounds (10, 1, 0.1, 0.01, 0.001, 0.0001, 0.00001 μM) were added in duplicate with 50 μL of 2×10^4 cells/well to tube formation plates coated with matrigel. […] of 4×VEGF (final concentration=25 ng/mL) or bFGF (final concentration=10 ng/mL) were added to the plates. The cells were then incubated overnight (˜18 hours) at 37° C. in a humidified incubator. The tubule webs were stained with calcein AM at 4 g/L in 2% FBS/IBSS for 30 minutes and images taken by fluorescence microscopy. The tubules were quantified by the MetaMorph tube formation software program for tube area and tube length.
The percentage inhibition of cell proliferation, tube formation, migration, and invasion was calculated by subtracting the result for unstimulated DMSO control from test sample results, averaging all replicates, and normalizing to the growth factor-stimulated DMSO control (0% inhibition). The IC50 values were calculated by using GraphPad Prism 5.0.

[3] = system: H929 DMSO-treated subclone; experiment: Proliferation and viability by 7-AAD staining; format: cell-based; details: Homo sapiens, NCI-H929, 120 h, 5 days, read-out: IC50 for inhibition of proliferation
Procedure: CRBN ubiquitination was measured in HEK293T cells, which were transfected with an amino-terminal His-biotin-tagged CRBN construct, then preincubated with compounds for one hour followed by treatment with the MG132 proteasome inhibitor (to arrest degradation of ubiquitinated proteins). Cells were lysed and processed to measure CRBN ubiquitination by SDS-PAGE and immunoblot analysis using an anti-ubiquitin antibody. Cell proliferation studies were conducted in lenalidomide-sensitive and refractory multiple myeloma cells. […] T-cell costimulation was measured in purified primary human T cells stimulated using immobilized anti-CD3 antibody in cell culture for 2 days, and cytokine secretion was measured by ELISA.

human umbilical artery = experiment: Human umbilical artery assay; format: cell-based
Procedure: Compounds I, I-R, and I-S were tested in various angiogenesis inhibition assays.

[4] = system: NCI-H929 Multiple Myeloma xenograft; experiment: NCI-H929 Multiple Myeloma xenograft model; format: in vivo, mouse; details: for tumor growth inhibition: day 19; for H929 tumor growth: mouse, in vivo
Procedure: Compounds I, I-R, and I-S were tested in NCI-H929 Multiple Myeloma xenograft model, and the results are depicted in FIG. 24.

[5] = system: U87 Glioblastoma xenograft; experiment: U87 Glioblastoma xenograft model; format: in vivo, mouse; details: for U87 tumor growth: 30 mg/kg qd
Procedure: Compounds I, I-R, and I-S were tested in U87 Glioblastoma xenograft model, and the results are depicted in FIG. 25.

[6] = read-out: GM-CSF production IC50
[7] = read-out: IL-1β production IC50
[8] = read-out: MIP-1β production IC50
[9] = read-out: TNF-α production IC50
[10] = read-out: MIP-1α production IC50

O=C1CC[C@@H](N2Cc3c(OCc4ccc(CN5CCOCC5)cc4)cccc3C2=O)C(=O)N1 [Compound I-R, (R)-3-(4-((4-(morpholinomethyl)benzyl)oxy)-1-oxoisoindolin-2-yl)piperidine-2,6-dione]
IL-10 (% of control) [1]: 442 % of control
MCP-1 (% of control) [1]: 223 % of control
RANTES (% of control) [1]: 151 % of control
IC50 [1, 6]: 39 nM
IC50 [1, 7]: 6.2 nM
IC50 ([1]; read-out: IL-6 production IC50): 83 nM
IC50 ([1]; read-out: IL-8 production IC50): > 10000 nM
IC50 ([1]; read-out: MDC production IC50): 12 nM
IC50 [1, 8]: > 10000 nM
IC50 [1, 9]: 9.5 nM
NK cell IFN-γ production (NK cells): slightly more active than compound I
VEGF-induced HUVEC tube formation (tube length and tube area) [2]: trend toward inhibiting
inhibition of tube area and length ([2]; VEGF-induced, 10 μM, p<0.05 vs stimulated DMSO control): significant inhibition

O=C1CC[C@H](N2Cc3c(OCc4ccc(CN5CCOCC5)cc4)cccc3C2=O)C(=O)N1 [Compound I-S, (S)-3-(4-((4-(morpholinomethyl)benzyl)oxy)-1-oxoisoindolin-2-yl)piperidine-2,6-dione]
IL-10 (% of control) [1]: 379 % of control
MCP-1 (% of control) [1]: 233 % of control
RANTES (% of control) [1]: 153 % of control
IC50 [1, 6]: 2.2 nM
IC50 [1, 7]: 0.46 nM
IC50 ([1]; read-out: IL-6 production IC50): 3.8 nM
IC50 ([1]; read-out: IL-8 production IC50): > 10000 nM
IC50 ([1]; read-out: MDC production IC50): 2.1 nM
IC50 [1, 10]: 28 nM
IC50 [1, 8]: > 10000 nM
IC50 [1, 9]: 0.59 nM
NK cell IFN-γ production (NK cells): slightly more active than compound I
VEGF-induced HUVEC tube formation (tube length and tube area) [2]: trend toward inhibiting
IC50 [3]: 40 nM
IC50 (human umbilical artery): 52 nM
tumor growth inhibition ([4]; 0.3 mg/kg): 34%
tumor growth inhibition ([4]; 3 mg/kg): 67%
tumor growth inhibition ([4]; 30 mg/kg): 87%
H929 tumor growth [4]: significantly inhibited H929 tumor growth in a dose-dependent manner
tumor growth inhibition ([5]; 15 mg/kg, day 43, another study): about 47%
U87 tumor growth [5]: significantly inhibited U87 tumor growth
tumor growth inhibition ([5]; 30 mg/kg, day 48): about 60%

O=C1CCC(N2Cc3c(OCc4ccc(CN5CCOCC5)cc4)cccc3C2=O)C(=O)N1 (racemic) [Compound I, 3-(4-((4-(morpholinomethyl)benzyl)oxy)-1-oxoisoindolin-2-yl)piperidine-2,6-dione]
IL-10 (% of control) [1]: 372 % of control
MCP-1 (% of control) [1]: 208 % of control
RANTES (% of control) [1]: 153 % of control
IC50 [1, 6]: 9.2 nM
IC50 [1, 7]: 0.85 nM
IC50 ([1]; read-out: IL-6 production IC50): 10 nM
IC50 ([1]; read-out: IL-8 production IC50): > 10000 nM
IC50 ([1]; read-out: MDC production IC50): 2.6 nM
IC50 [1, 10]: 190 nM
IC50 [1, 8]: > 10000 nM
IC50 [1, 9]: 1.8 nM
VEGF-induced HUVEC tube formation (tube length and tube area) [2]: trend toward inhibiting
H929 tumor growth [4]: significantly inhibited H929 tumor growth in a dose-dependent manner
U87 tumor growth [5]: significantly inhibited U87 tumor growth
tumor growth inhibition ([5]; 30 mg/kg, day 48): > 80%
